Experimental data taken from patent publication US20100022559A1, “BISOXIMES AS FUNGICIDES” (BAYER CROPSCIENCE AG, priority 2006, published 2010).
Each block holds one compound with its values, some of them ahead of it.

Assay: logP determination by HPLC on a reversed-phase column (C 18), EEC Directive 79/831 Annex V.A8
Type: physicochemical
Protocol: The stated logP values were determined in accordance with EEC Directive 79/831 Annex V.A8 by HPLC (high performance liquid chromatography) on a reversed-phase column (C 18). Temperature: 43° C.

[1] = method marker [b], isomer A / isomer B / isomer mixture as noted in the cell
[2] = method marker [a] (footnote not shown), isomer A / isomer B / isomer mixture as noted in the cell

logP (method marked [b] in Table 1): 3.99^[b] (isomer A)
Compound: CC(=NOCCCCCCON=C(C)c1sc(C)nc1C)c1cccc(C)n1 (single isomer, unassigned) [compound 542]

logP [1]: 1.97^[b]
Compound: C=C(CON=C(C)c1cccc(C)n1)CON=C(N)c1nc(C)cc(C)n1 [compound 192]

logP (value marked [a]): 1.97^[a]
Compound: CC(=NOC(=O)NCCCCNC(=O)ON=C(C)c1cccc(C)n1)c1cccc(C)n1 [compound 864]

logP (value marked [b]): 2.70^[b]
Compound: Cc1nc(C(N)=NOC/C=C/CON=C(N)c2nc(C)c(Cl)c(C)n2)nc(C)c1Cl [compound 774]

logP (method marked [b] in Table 1): 2.57^[b]
logP (method marked [c] in Table 1): 4.46^[c]
Compound: CCC(CON=C(C)c1nc(C)ccc1C)CON=C(C)c1nc(C)ccc1C (single isomer, unassigned) [compound 750]

logP (value marked [b]): 6.16^[b]
Compound: CC(=NOCC(C)(C)CON=C(C)c1cccc(C)n1)c1cccc(C(F)(F)F)c1 [compound 410]

logP (method marked [b] in Table 1): 3.29^[b]
Compound: Cc1nc(/C(N)=N/OCc2cccc(CO/N=C(\N)c3nc(C)c(Cl)c(C)n3)c2)nc(C)c1Cl [compound 715]

logP [1]: 6.02^[b]
Compound: C=C(CON=C(C)c1cccc(C(F)(F)F)n1)CON=C(C)c1cccc(C(F)(F)F)n1 [compound 176]

logP (value marked [b]): 3.90^[b]
logP (value marked [c]): 5.41^[c]
Compound: CCC(CC)(CON=C(C)c1nc(C)ccc1C)CON=C(C)c1nc(C)ccc1C [compound 882]

logP (method marked [b] in Table 1): 3.63^[b]
Compound: Cc1cc(C)nc(/C(N)=N/OCc2cccc(CO/N=C(\N)c3cc(C)cc(C)n3)c2)c1 [compound 726]

logP [2]: 4.86^[a]
Compound: CCC(=NOCCCCON=C(CC)c1cccc(C)n1)c1cccc(C)n1 (mixture of isomers) [compound 223]

logP (method marked [a] in Table 1): 3.80^[a]
Compound: Cc1cccc(C(=NOCC2(CON=C(c3cccc(C)n3)C3CC3)CC(c3ccccc3)=NO2)C2CC2)n1 (centres unmarked) [compound 650]

logP (value marked [b]): 1.85^[b]
Compound: CC(=NOCC(C)CON=C(C)c1cccnc1C)c1cccc(C)n1 (centres unmarked) [compound 500]

logP (method marked [b] in Table 1): 2.16^[b]
Compound: COCc1nc(/C(N)=N/OCc2ccccc2CO/N=C(\N)c2nc(COC)c(C)c(COC)n2)nc(COC)c1C [compound 708]

logP [2]: 3.08^[a]
Compound: Cc1cccc(C(CS(C)(=O)=O)=NOCC(C)CON=C(CS(C)(=O)=O)c2cccc(C)n2)n1 (centres unmarked) [compound 137]

Further lines, the compound ahead of its results:

Compound: Cc1cc(C)nc(/C(N)=N/OCC(C)CO/N=C(\N)c2nc(C)cc(C)n2)n1 (centres unmarked) [Compound 10]
logP [1]: 1.81^[b]

Compound: CCCC(=NOCC(C)(C)CON=C(CCC)c1cccc(C)n1)c1cccc(C)n1 [Compound 279]
logP (value marked [a]): 7.25^[a]

Compound: CC(=NOC(C)CC(C)ON=C(C)c1cccc(C)n1)c1cccc(C)n1 (centres unmarked) [Compound 248]
logP [1]: 4.10^[b]

Compound: C=C(CON=C(C)c1cccs1)CON=C(C)c1nccs1 [compound 78]
logP [1]: 4.31^[b]

Compound: CC(=NOC[Si](C)(CON=C(C)c1cccc(C)n1)C(C)C)c1cccc(C)n1 [Compound 834]
logP (value marked [a]): 6.72^[a]
logP (value marked [b]): 6.72^[b]
logP (value marked [c]): 7.35^[c]

Compound: C=CCCC(=NOCC(C)CON=C(CCC=C)c1ncccc1C)c1ncccc1C (centres unmarked) [compound 130]
logP [2]: 5.06^[a]

Compound: CC(=NOCC(C)(C)CON=C(C)c1ccc(C)c(C)n1)c1cc(C)cc(C)n1 [Compound 697]
logP (method marked [b] in Table 1): 3.15^[b]
logP (method marked [c] in Table 1): 6.70^[c]

Compound: CCC(CON=C(C)c1cc(C)cc(C)n1)CON=C(C)c1cc(C)cc(C)n1 (centres unmarked) [Compound 679]
logP (method marked [b] in Table 1): 2.61^[b]

Compound: COCc1cc(C)nc(C(C)=NOCC(C)CON=C(C)c2cc(COC)cc(C)n2)c1 (centres unmarked) [Compound 871]
logP (value marked [b]): 4.06^[b]
logP (value marked [c]): 5.57^[c]

Compound: Cc1cccc(C(=NOCC(C)CON=C(c2ccccc2)c2cccc(C)n2)c2ccccc2)n1 (mixture of isomers) [Compound 659]
logP (method marked [a] in Table 1): 4.09^[a]

Compound: CC(=NOCC(C)CON=C(C)c1cccc(C)n1)c1cccc(C)n1 (centres unmarked) [Compound 1]
logP [2]: 2.31^[a]
logP (method marker [c] (footnote not shown)): 5.44^[c]

Compound: CCC(=NOCCCON=C(CC)c1ccc(C)c(C)n1)c1ccc(C)c(C)n1 (mixture of isomers) [Compound 236]
logP [2]: 3.80^[a]

Compound: CC(=NOCCCON=C(C)c1nc(C)cs1)c1nc(C)cs1 [compound 87]
logP [2]: 4.22^[a]
